Test results from patent US20170106017A1 (priority 2014, published 2017).
Read-outs that look alike come from different tables or passages of the source.

Key:
[1] = tested on: ALS patients; details: for mean decrease in ALSFRS-R score: 3-month off-drug follow-up; for estimated ALSFRS-R slope: patients less than the baseline median wr-CRP; for estimated ALSFRS-R slope decline: patients with baseline wrCRP at or above the median
[2] = tested on: G93A SOD1 congenic strain of mice; details: preliminary studies (McGrath et al., 2010); cited from earlier work
[3] = tested on: PD patients; details: 1-2 mg/kg/infusion, 6 months
[4] = tested on: CD16 expression on CD16 bright monocytes; details: 0.2-3.2 mg/kg single dose, 24 hours after dosing
[5] = tested on: IL-18; details: 1-2 mg/kg/infusion, 6 months; for plasma level of IL-18 after treatment: responders
Procedure: Thirty two patients diagnosed with ALS were treated with chlorite over the course of 6 months. The initial plasma concentration of IL-18 in each patient was recorded and set as the baseline level. Patients were treated with 1-2 mg/kg/infusion chlorite over the course of 6 months. ALSFRS-R scores and IL-18 levels were recorded at different time points during the treatment and compared with the initial concentration.

[6] = tested on: LPS; details: for responders with decreased LPS: at least 6 months of treatment
Procedure: (§1) A randomized, double-blind, placebo-controlled study was administered over six cycles. Patients were treated with chlorite 2 mg/kg/infusion, or placebo. […] Samples from both responders and non-responders were collected and tested at different time points, e.g., at baseline (pre-dose Cycle 1, Week 1), 1-month, 2-month, 3-month, 4-month, 5-month and 6-month. ALSFRS-R scores and biomarkers levels were measured in responders and non-responders at selected time points and compared to the placebo group.

[7] = tested on: ALS patients; details: 1-2 mg/kg/infusion, at least 6 months
[8] = tested on: IL-18
Procedure: A randomized, double-blind, placebo-controlled study was administered over six cycles. Patients were treated with chlorite 2 mg/kg/infusion, or placebo. Patients were scheduled to receive a total of 20 infusions over 6 cycles during a 25-week (or 6-month) treatment period. […] Levels of biomarkers can be measured with techniques known in the art, e.g., ELISA or flow cytometry.

[9] = tested on: AD patients; details: 1-2 mg/kg/infusion, 6 months
[10] = tested on: ALS patients; details: for ALSFRS-R level over the course of treatment: 1-2 mg/kg/infusion, 6 months
Procedure: Patients diagnosed with ALS are treated with chlorite over the course of 6 months. Based upon the initial concentration of IL-18 at the baseline or its baseline level, patients are sorted into two groups. Patients with baseline level of IL-18 higher than 60 pg/mL are assigned in IL-18-high group and patients with baseline level of IL-18 lower than 60 pg/mL are assigned in IL-18-low group. Both groups are treated with 1-2 mg/kg/infusion chlorite over the course of 6 months. ALSFRS-R scores and IL-18 levels are recorded at different time points during the treatment and compared between IL-18-high and IL-18-low groups.

[11] = tested on: ALS patients; details: for decline in vital capacity: at least 6 months of treatment
Procedure: as §1

Substance: sodium chlorite [NP001]
- effect on ALSFRS-R slope and change from baseline compared to placebo ([1]; 1 mg/kg): minimal or no effect dose
- mean decrease in ALSFRS-R score ([1]; 1 mg/kg): −3.7
- estimated ALSFRS-R slope ([1]; 1 mg/kg): −1.38
- estimated ALSFRS-R slope decline ([1]; 1 mg/kg): −0.73 points per month
- mean decrease in ALSFRS-R score ([1]; 2 mg/kg): −3.3
- ALSFRS-R mean slope ([1]; 2 mg/kg, 6 months of treatment (Weeks 1 through 25)): −0.77 points per month
- percent change in ALSFRS-R mean slope compared to placebo ([1]; 2 mg/kg, 6 months, concurrent placebo): 13%
- improvement in rate of progression compared to placebo ([1]; 2 mg/kg, baseline wrCRP at or above the median, p=0.2): 41%
- estimated ALSFRS-R slope ([1]; 2 mg/kg): −0.87
- estimated ALSFRS-R slope decline ([1]; 2 mg/kg): −0.55 points per month
- slowing of change in ALSFRS-R from baseline ([1]; 2 mg/kg, with addition of matched historical placebo control patients): 21%
- improvement in the rate of progression compared to combined placebo controls ([1]; 2 mg/kg, with matched historical placebo controls, p=0.16): 19%
- slowing of change in ALSFRS-R from baseline ([1]; 2 mg/kg, without addition of matched historical placebo control patients): 17%
- slower functional decline (residual) in mean change in ALSFRS-R compared to placebo ([1]; high dose (2 mg/kg), off-drug follow-up): 11%
- survival, treated compared to control mice [2]: significant survival improvement
- treatment of Parkinson's patients [3]: capable of treating Parkinson's patients
- level of CD16 expression on the CD16 bright subset of monocytes vs placebo [4]: Dose-dependent changes
- number of non-responders ([5]; 32 ALS patients): 22
- number of responders ([5]; 32 ALS patients): 10
- plasma level of IL-18 after treatment [5]: decreased
- plasma level of IL-18 after treatment ([5]; listed as chlorite/NP001): capable of lowering IL-18 plasma level
- responders with decreased LPS ([6]; high dose responders): 70%
- responders with decreased LPS ([6]; low dose group responders (8)): half
- LPS level at week 24 ([6]; non-responders, baseline about 0.35): about 0.2
- decrease of LPS level from baseline ([6]; non-responders, week 24): about 40%
- LPS level after treatment ([6]; responders, week 24, baseline about 0.3): undetectable level
- decrease of LPS level from baseline ([6]; responders, week 24, calculated with minimum detection level about 0.075): about 75%
- relationship between mean ALSFRS-R levels and mean baseline levels of biomarkers [7]: linear relationship with a positive slope
- responders with decreased IL-18 ([8]; high dose responders, at least 6 months of treatment): 80%
- responders with decrease in IL-18 ([8]; low dose group responders (8), at least 6 months of treatment): 1 patient
- change of plasma IL-18 level from baseline ([8]; non-responders, after 25 weeks): increase
- change of plasma IL-18 level from baseline ([8]; responders, after 25 weeks of treatment): decrease
- treatment of AD patients [9]: capable of treating AD patients
- ALSFRS-R level over the course of treatment ([10]; IL-18-high group (baseline IL-18 higher than 60 pg/mL)): stabilizes
- decrease in IL-18 baseline level ([10]; IL-18-high vs IL-18-low group): can only be observed in IL-18-high group
- ALSFRS-R level over the course of treatment ([10]; IL-18-low group (baseline IL-18 lower than 60 pg/mL)): no stabilization
- disease progression of ALS patients ([11]; 2 mg/kg, patients with high plasma level of IL-18, IL-6, INF-g, and CPR): capable of slowing the disease progression
- percentage of patients who did not progress (responders) ([11]; high dose group (2 mg/kg), 6-month treatment period): 27%
- percentage of non-progressing patients relative to placebo group ([11]; high dose group vs placebo (11%)): approximately 2.5 times
- decline in vital capacity ([11]; non-responders, 1 mg): −17.7+/−17.9
- decline in vital capacity ([11]; non-responders, 2 mg): −14.5+/−13.2
- ALSFRS-R score over the 6-month treatment period ([11]; responders): remained stable
- decline in vital capacity ([11]; responders, 1 mg): −8.95+/−10.1
- decline in vital capacity ([11]; responders, 2 mg): −3.76+/−5.7
